Activity calls are given as the source filed them.
How the values were obtained:
Ion channel NompC = Ion channel NompC (Danio rerio, UniProt Q7T1G6); assay: Fluorescence counterscreen assay for TRPML3 agonists: dose response cell-based high-throughput screening assay to identify agonists of the transient receptor potential channel N1 (TRPN1). [Related pubchem assays: 1526, 1424, 1448 ]; type: functional
Mucolipin-3 = Mucolipin-3 (Homo sapiens, UniProt Q8TDD5); assay: Dose response cell-based high-throughput screening assay for agonists of the transient receptor potential channel ML3 (TRPML3). [Related pubchem assays: 1526, 1424, 1448 ]; type: functional
[1] = target: Sphingosine 1-phosphate receptor 2 (Homo sapiens, UniProt O95136); assay: Dose Response Cell Based Assay for Agonists of the S1P2 Receptor of Purchased Analogues. [Related pubchem assays: 729, 843, 854, 736 ]; type: functional
[2] = Luminescence Cell-Based Dose Response HTS to Identify Inhibitors of 5'UTR Stem-Loop Driven Prion Protein mRNA Translation in H4 Neuroglioblastoma Cells. [Related pubchem assays: 1827 (Project Summary), 1813 (Primary HTS)]; type: functional
[3] = Luminescence Cell-Based Dose Retest to Confirm Inhibitors of Cancer Stem Cells. [Related pubchem assays (depositor defined):AID2717, AID2721]; type: functional; conditions: Homo sapiens
Exodeoxyribonuclease V = Exodeoxyribonuclease V (Escherichia coli (strain K12), UniProt P04993+P07648+P08394); assay: E. coli RecBCD inhibitors, dose response, counter-screen for AddAB inhibitor project, absorbance, V66 E. coli, mutant T4 phage (AID 492957); type: functional, cell-based, Escherichia coli str. K-12 substr. MG1655
[4] = control 3'UTR Renilla luciferase suppression, dose response, counter-screen for Shn3 inhibitor project, cell-based, Clone20-Shn3RL, cherry-picked (AID 624133); type: functional
[5] = target: Voltage-gated inwardly rectifying potassium channel KCNH2 (Homo sapiens, UniProt Q12809); assay: hERG protection from proarrhythmic block, potency, dose response, cell-based, thallium flux (AID 2121); type: ADME
[6] = Counterscreen for AddAB inhibitors: absorbance-based bacterial cell-based high throughput dose response assay for inhibitors of bacterial viability. [Related pubchem assays (depositor defined):AID435030, AID449728, AID449731, AID488942, AID488955, AID488956]; type: functional
[7] = NIH-3T3 fibroblast cytotoxicity, dose response, cytotoxicity control, cell-based, fluorescence, Alamar Blue, secondary assay (AID 2327); type: functional;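 note: NIH-3T3 mouse fibroblasts cultured with fluconazole at 8 µg/mL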
Cytochrome P450 2D6 = Cytochrome P450 2D6 (Homo sapiens, UniProt P10635);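 note: CYP2D6 member of a cytochrome P450 panel assay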
[8] = HepG2 cell cytotoxicity, dose response, cytotoxicity control for Shn3 inhibitor project, CellTiter-Glo, cherry-picked (AID 624134); type: functional, cell-based
[9] = inhibitors of SNCA 5'UTR-driven reporter translation, confirmation, H4 neuroglioma cells, luminescence (AID 1988); type: functional, cell-based
[10] = Shn3 3'UTR reporter inhibitors, dose response, cell-based, Clone20 osteoblasts, firefly luciferase, cherry-picked (AID 624132); type: functional;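 note: firefly luciferase luminescence from reporter carrying the Shn3 3'UTR in osteoblasts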
Cytochrome P450 1A2 = target: T1, Cytochrome P450 1A2 (Homo sapiens, UniProt P05177);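 note: PubChem cytochrome P450 panel assay, CYP1A2 panel member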
T1 sequence (P05177 whole entry): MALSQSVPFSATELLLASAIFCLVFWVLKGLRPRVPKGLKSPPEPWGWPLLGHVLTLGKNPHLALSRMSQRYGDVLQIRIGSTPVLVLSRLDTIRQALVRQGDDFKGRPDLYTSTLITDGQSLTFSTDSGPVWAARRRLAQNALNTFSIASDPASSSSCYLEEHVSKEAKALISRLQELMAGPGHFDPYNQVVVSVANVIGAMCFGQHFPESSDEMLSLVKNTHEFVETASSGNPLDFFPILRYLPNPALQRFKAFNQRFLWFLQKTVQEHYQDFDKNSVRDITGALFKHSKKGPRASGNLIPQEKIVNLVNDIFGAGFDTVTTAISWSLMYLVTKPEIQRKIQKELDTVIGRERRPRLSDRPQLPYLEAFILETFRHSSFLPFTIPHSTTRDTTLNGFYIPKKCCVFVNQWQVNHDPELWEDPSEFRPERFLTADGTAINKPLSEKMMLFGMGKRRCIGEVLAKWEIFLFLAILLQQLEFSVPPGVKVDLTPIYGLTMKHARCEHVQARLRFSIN

[11] = C. albicans growth with fluconazole, confirmation, fluorescence, retest (AID 2467); type: functional, cell-based
[12] = inhibitors of firefly luciferase expression or activity, dose response, H4 neuroglioma cells, luminescence (AID 1990); type: functional, cell-based
[13] = A Cell Based Secondary Assay To Explore Cytotoxicity of Compounds that Sensitize Mycobacterium Tuberculosis to Beta-Lactam Antibiotics.; type: functional
NADPH oxidase 1 = NADPH oxidase 1 (Homo sapiens, UniProt Q9Y5S8); type: functional, cell-based;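 note: Cell-based assay with luminescence read-out, IC50 derived from inhibitor dose-response curves; intracellular ROS from endogenous NOX1 in intact HT29 colon cancer cells; potency of inhibitors that lower the ROS luminescence signal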
[14] = M. tuberculosis H37Rv growth inhibitors, H37Rv strain (AID 1626); type: functional
[15] = target: T2, RNA-binding protein pos-1 (Caenorhabditis elegans, UniProt G5EF15); assay: inhibitors of POS-1/mex-3 RNA binding, dose response, biochemical, fluorescence polarization (AID 1964);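 note: purified POS-1 fused to maltose binding protein made in E. coli; potency of compounds blocking POS-1 binding to fluorescent RNA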
T2 sequence (G5EF15 whole entry): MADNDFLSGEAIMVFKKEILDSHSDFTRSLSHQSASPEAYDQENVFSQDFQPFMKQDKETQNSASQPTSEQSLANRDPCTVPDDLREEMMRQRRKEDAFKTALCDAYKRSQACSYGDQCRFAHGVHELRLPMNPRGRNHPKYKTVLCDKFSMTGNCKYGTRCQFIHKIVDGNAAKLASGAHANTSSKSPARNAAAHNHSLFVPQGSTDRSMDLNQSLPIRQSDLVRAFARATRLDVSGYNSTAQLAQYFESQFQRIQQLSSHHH

[16] = target: T3, Heat shock factor protein 1 (Mus musculus, UniProt P38532); assay: inhibition of MG132-induced HSE-luciferase signal, confirmation, cell-based, NIH3T3, luminescence, dose retest (AID 2382); type: functional;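 note: NIH3T3 fibroblasts with HSF1-driven luciferase reporter stressed by proteasome inhibitor MG132; luminescence from HSF1-driven luciferase expression after 8 hours of MG132 stress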
T3 sequence (P38532 whole entry): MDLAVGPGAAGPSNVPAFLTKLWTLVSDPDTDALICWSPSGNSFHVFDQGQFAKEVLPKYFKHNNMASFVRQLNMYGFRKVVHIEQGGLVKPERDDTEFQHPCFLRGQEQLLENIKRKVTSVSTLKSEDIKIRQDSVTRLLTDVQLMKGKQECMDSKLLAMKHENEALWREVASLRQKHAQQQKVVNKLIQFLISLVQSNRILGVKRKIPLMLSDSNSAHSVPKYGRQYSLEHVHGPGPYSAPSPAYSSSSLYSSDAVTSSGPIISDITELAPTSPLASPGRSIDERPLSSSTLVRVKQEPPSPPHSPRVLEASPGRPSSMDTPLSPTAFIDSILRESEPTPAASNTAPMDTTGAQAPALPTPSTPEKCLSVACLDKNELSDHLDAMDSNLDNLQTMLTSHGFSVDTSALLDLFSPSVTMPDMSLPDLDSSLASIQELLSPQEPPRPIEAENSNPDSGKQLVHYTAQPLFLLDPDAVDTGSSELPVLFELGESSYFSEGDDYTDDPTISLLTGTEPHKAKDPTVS

[17] = target: T4, Zinc finger protein mex-5 (Caenorhabditis elegans, UniProt Q9XUB2); assay: MEX-5/TCR-2 RNA interaction inhibitors, dose response, biochemical, C. elegans, fluorescence polarization (AID 1960)
T4 sequence (Q9XUB2 whole entry): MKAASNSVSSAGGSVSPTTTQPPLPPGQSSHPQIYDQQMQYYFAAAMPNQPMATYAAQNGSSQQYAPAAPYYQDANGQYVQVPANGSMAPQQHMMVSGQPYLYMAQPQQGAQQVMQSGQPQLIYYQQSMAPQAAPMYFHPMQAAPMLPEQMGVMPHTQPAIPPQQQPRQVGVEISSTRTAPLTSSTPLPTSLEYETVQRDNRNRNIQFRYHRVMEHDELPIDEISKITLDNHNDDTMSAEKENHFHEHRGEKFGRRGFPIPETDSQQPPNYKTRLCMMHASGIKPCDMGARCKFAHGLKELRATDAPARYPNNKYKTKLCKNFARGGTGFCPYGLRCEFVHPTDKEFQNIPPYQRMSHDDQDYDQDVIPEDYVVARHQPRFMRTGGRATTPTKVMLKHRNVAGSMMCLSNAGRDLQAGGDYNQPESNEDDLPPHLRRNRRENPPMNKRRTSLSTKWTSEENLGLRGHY

Sphingosine 1-phosphate receptor 2, sequence (O95136 whole entry): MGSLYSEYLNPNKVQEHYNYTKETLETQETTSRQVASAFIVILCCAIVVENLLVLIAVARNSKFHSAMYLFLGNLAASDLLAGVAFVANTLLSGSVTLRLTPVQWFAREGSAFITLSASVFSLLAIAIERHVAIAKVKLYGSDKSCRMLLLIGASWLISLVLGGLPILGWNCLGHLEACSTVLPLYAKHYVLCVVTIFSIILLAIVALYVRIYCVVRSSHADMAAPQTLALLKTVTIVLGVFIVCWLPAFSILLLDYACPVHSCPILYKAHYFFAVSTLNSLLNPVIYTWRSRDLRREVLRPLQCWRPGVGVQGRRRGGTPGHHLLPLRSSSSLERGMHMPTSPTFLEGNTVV
Ion channel NompC, sequence (Q7T1G6 whole entry): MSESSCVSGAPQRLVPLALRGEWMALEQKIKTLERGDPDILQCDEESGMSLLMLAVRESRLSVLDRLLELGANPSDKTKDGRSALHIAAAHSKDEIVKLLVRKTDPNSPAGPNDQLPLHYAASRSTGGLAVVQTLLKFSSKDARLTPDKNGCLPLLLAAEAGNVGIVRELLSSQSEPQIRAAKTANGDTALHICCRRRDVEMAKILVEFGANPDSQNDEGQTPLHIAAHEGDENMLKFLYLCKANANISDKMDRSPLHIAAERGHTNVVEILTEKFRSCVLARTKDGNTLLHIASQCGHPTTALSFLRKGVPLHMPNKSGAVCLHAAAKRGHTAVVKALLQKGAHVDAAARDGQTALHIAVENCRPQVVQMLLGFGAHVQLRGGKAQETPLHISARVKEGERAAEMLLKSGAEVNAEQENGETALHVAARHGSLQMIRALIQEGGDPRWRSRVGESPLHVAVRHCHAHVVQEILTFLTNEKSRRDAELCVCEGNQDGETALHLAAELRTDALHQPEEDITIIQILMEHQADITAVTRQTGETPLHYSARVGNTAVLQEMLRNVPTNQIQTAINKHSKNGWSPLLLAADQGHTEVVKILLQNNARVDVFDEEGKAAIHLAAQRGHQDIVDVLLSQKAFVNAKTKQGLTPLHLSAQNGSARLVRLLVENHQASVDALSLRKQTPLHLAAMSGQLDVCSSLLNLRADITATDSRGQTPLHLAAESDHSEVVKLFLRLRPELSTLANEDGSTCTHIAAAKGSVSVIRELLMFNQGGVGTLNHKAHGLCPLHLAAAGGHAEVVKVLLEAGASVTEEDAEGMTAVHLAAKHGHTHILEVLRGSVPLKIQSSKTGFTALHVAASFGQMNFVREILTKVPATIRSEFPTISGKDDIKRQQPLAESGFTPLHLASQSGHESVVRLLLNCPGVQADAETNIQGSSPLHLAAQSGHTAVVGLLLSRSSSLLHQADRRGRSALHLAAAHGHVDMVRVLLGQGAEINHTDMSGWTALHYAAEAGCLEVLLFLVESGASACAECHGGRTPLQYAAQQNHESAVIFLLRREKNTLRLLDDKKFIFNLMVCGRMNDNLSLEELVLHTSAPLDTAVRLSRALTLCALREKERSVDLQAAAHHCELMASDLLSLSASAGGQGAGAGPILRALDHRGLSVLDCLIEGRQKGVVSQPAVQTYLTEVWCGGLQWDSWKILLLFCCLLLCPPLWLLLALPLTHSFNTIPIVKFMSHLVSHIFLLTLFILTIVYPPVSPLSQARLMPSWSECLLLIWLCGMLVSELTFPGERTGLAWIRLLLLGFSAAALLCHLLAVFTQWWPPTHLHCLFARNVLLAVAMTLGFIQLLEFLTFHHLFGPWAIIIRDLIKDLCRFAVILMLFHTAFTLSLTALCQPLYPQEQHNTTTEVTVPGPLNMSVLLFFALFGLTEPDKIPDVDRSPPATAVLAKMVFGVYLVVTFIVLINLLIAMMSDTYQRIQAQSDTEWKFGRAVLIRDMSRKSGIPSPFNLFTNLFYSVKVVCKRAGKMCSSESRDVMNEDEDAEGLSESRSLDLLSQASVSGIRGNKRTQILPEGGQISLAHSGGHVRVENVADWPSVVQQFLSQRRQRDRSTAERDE
NADPH oxidase 1, sequence (Q9Y5S8 whole entry): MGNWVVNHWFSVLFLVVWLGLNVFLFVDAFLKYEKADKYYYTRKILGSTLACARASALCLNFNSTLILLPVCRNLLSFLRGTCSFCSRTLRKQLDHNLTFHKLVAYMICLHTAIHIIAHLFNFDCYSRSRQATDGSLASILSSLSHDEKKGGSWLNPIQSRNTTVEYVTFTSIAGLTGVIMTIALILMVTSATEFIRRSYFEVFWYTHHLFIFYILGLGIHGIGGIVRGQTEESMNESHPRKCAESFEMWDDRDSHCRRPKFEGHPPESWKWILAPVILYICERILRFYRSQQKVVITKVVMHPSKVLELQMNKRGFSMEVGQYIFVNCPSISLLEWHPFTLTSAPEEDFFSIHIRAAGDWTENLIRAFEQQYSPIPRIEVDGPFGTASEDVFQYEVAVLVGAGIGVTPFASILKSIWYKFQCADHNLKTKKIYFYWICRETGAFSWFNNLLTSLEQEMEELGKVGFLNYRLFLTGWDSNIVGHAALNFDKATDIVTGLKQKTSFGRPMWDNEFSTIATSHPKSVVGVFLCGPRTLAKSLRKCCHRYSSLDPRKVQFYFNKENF
Mucolipin-3, sequence (Q8TDD5 whole entry): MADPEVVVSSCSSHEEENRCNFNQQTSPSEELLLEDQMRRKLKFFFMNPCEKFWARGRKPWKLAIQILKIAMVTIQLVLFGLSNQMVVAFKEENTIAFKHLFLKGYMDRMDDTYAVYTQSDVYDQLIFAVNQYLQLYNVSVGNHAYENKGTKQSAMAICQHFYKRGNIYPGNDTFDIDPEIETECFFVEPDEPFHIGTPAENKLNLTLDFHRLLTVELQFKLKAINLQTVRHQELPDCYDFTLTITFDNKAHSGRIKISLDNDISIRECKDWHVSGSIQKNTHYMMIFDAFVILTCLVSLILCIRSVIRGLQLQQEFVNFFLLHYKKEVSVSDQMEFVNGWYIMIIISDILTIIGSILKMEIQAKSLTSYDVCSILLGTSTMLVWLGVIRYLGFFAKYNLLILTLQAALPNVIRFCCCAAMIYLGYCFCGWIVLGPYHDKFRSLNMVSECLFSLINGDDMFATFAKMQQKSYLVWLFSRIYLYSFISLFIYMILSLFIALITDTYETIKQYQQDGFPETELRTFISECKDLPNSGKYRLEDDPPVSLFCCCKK
Voltage-gated inwardly rectifying potassium channel KCNH2, sequence (Q12809 whole entry): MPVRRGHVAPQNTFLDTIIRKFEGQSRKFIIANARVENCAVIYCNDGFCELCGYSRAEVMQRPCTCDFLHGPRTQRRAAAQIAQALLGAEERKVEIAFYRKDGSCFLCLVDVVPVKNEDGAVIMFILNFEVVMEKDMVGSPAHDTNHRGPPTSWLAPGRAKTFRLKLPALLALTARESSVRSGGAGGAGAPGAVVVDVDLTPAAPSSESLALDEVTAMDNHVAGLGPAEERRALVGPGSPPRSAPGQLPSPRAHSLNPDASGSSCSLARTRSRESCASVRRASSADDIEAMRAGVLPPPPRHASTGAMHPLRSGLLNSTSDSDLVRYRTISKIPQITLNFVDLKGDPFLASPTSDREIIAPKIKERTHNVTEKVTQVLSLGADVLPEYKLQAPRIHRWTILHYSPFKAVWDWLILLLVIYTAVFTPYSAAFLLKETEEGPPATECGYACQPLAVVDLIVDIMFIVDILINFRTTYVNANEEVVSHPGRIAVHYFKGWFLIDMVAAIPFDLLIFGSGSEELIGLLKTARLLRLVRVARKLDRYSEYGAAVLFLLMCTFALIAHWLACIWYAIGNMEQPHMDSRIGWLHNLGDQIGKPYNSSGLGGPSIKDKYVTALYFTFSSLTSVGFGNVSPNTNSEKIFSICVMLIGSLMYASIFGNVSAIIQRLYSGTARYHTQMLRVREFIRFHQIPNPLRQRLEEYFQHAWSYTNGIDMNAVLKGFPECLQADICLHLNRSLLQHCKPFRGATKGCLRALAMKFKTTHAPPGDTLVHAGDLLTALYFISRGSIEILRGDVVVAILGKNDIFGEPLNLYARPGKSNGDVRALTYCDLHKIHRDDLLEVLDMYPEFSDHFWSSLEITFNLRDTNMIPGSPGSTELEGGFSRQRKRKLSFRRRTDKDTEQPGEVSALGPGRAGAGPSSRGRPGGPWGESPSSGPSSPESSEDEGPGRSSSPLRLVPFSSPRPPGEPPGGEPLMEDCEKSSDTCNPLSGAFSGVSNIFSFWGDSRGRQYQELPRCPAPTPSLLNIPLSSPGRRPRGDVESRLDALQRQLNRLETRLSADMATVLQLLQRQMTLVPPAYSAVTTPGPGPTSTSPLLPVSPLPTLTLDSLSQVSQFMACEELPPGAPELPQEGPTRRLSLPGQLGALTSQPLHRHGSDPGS
Cytochrome P450 2D6, sequence (P10635 whole entry): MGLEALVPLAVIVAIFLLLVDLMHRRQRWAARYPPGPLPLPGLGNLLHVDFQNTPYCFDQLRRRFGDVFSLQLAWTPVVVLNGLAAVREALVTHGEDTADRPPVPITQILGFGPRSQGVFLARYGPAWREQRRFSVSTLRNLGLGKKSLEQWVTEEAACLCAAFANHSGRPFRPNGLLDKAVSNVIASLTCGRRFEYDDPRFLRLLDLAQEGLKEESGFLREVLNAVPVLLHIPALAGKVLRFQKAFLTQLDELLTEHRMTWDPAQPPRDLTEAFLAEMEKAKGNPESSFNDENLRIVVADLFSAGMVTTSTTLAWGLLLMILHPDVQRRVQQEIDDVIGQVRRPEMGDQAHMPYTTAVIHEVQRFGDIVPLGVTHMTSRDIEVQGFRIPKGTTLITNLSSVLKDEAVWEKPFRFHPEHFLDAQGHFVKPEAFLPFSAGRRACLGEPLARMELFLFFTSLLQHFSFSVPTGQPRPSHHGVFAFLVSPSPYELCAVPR

Compound: COc1cc(S(=O)(=O)N(C)C2CCCCC2)c(C)cc1C
- EC50 (Ion channel NompC): > 29.9 µM (not active)
- EC50 (Mucolipin-3): 3.06 µM (active)

Compound: Cc1cc(C(=O)CSc2ncccn2)c(C)n1Cc1ccccc1
- EC50 [1]: > 30 µM (not active)

Compound: Cc1cc([N+](=O)[O-])ccc1-c1ccc(C2Nc3ccccc3C(=O)N2O)o1 (stereo not drawn)
- EC50 [2]: 10.4 µM (active)
- AC50 [3]: 5.3 µM (active)
- IC50 (Exodeoxyribonuclease V): > 119 µM (inactive)
- AC50 [4]: 11.3 µM (active)
- EC50 [5]: 2.58 µM (active)
- IC50 [6]: > 119 µM (inactive)
- EC50 [7]: > 160 µM (inconclusive)
- AC50 (Cytochrome P450 2D6): 20 µM (inconclusive)
- AC50 [8]: 32.9 µM (active)
- EC50 [9]: 8.61 µM (active)
- AC50 [10]: 3.32 µM (active)
- AC50 (Cytochrome P450 1A2): 25.1 µM (inconclusive)
- EC50 [11]: 1.31 µM (active)
- EC50 [12]: 10.3 µM (active)

Compound: COc1ccc2c(c1)c(C(C)=O)c(C)n2-c1ccccc1
- CC50 [13]: > 40 µM (active)

Compound: O=[N+]([O-])c1ccc(-c2nc(-c3ccccc3)c(-c3ccccc3)[nH]2)cc1
- IC50 (NADPH oxidase 1): > 17 µM (not active)

Compound: COc1ccc(/N=C/c2c(O)ccc3ccccc23)cc1
- IC50 [14]: > 100 µM (active)
- EC50 [15]: > 300 µM (not active)
- EC50 [16]: 35.1 µM (active)
- EC50 [17]: > 300 µM (not active)

Reference: ChEMBL document CHEMBL1201862, “PubChem BioAssay data set” (2004)
